# Measurements reported in ChEMBL document CHEMBL1201862, “PubChem BioAssay data set” (2004).
#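 Interpolation was linear, between the two tested concentrations surrounding the appropriate level; five concentrations were tested over 48 hours in 96-well plates. The concentration for 50% growth inhibition is given as GI50.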 The source made the active and inactive calls. Rule as the data show it: active = GI50 up to about 1.1 µM and inactive = higher.
# Tests used:
# Assay in all cases: inhibition of tumour cell growth, NCI panel, 48 h
# RPMI-8226 = tested on: RPMI-8226
# UO-31 = tested on: UO-31
# SK-MEL-28 = tested on: SK-MEL-28
# CCRF-CEM = tested on: CCRF-CEM
# OVCAR-3 = tested on: OVCAR-3
# NCI/ADR-RES = tested on: NCI/ADR-RES
# HCT-15 = tested on: HCT-15
# SK-MEL-5 = tested on: SK-MEL-5
# DU-145 = tested on: DU-145
# TK-10 = tested on: TK-10
# HL-60 = tested on: HL-60
# SF-295 = tested on: SF-295
# HOP-92 = tested on: HOP-92
# SW-620 = tested on: SW-620
# BT-549 = tested on: BT-549
# ACHN = tested on: ACHN
# SN12C = tested on: SN12C
# SNB-19 = tested on: SNB-19
# IGROV-1 = tested on: IGROV-1
# NCI-H23 = tested on: NCI-H23
Compound,GI50 (RPMI-8226),GI50 (UO-31),GI50 (SK-MEL-28),GI50 (CCRF-CEM),GI50 (OVCAR-3),GI50 (NCI/ADR-RES),GI50 (HCT-15),GI50 (SK-MEL-5),GI50 (DU-145),GI50 (TK-10),GI50 (HL-60),GI50 (SF-295),GI50 (HOP-92),GI50 (SW-620),GI50 (BT-549),GI50 (ACHN),GI50 (SN12C),GI50 (SNB-19),GI50 (IGROV-1),GI50 (NCI-H23)
NC(=O)c1ncn(C2OC(CO)C(O)C2O)c1NC=O (stereo not given),> 100 µM (inactive),> 100 µM (inactive),> 100 µM (inactive),> 100 µM (inactive),> 100 µM (inactive),> 100 µM (inactive),> 100 µM,> 100 µM (inactive),> 100 µM (inactive),> 100 µM (inactive),> 100 µM (inactive),> 100 µM (inactive),> 100 µM (inactive),> 100 µM (inactive),> 100 µM (inactive),> 100 µM (inactive),> 100 µM (inactive),> 100 µM (inactive),> 100 µM (inactive),> 100 µM (inactive)
O=S(=O)(O)C(c1ccccc1)C(O)c1ccccc1 (stereo not given),> 100 µM (inactive),> 100 µM (inactive),> 100 µM (inactive),> 100 µM (inactive),> 100 µM (inactive),> 100 µM (inactive),> 100 µM,> 100 µM (inactive),> 100 µM (inactive),> 100 µM (inactive),> 100 µM (inactive),> 100 µM (inactive),> 100 µM (inactive),> 100 µM (inactive),> 100 µM (inactive),> 100 µM (inactive),> 100 µM (inactive),> 100 µM (inactive),> 100 µM (inactive),> 100 µM (inactive)
O=C1Nc2ccccc2/C1=N/NC(=S)NCc1ccccn1,< 0.01 µM (active),0.373 µM (active),2.36 µM (inactive),< 0.01 µM (active),< 0.01 µM (active),0.418 µM (active),0.0326 µM,0.551 µM (active),0.698 µM (active),2.52 µM (inactive),< 0.01 µM (active),0.507 µM (active),1.11 µM (active),0.126 µM (active),1.09 µM (active),0.2 µM (active),1.27 µM (inactive),0.678 µM (active),0.0721 µM (active),0.533 µM (active)
N#C/C(=C\c1ccc2[nH]ccc2c1)C(=O)NCCCCNC(=O)/C(C#N)=C/c1ccc2[nH]ccc2c1,> 10 µM (inactive),> 31.6 µM (inactive),> 31.6 µM (inactive),> 31.6 µM (inactive),> 31.6 µM (inactive),> 10 µM (inactive),> 31.6 µM,> 31.6 µM (inactive),> 10 µM (inactive),> 31.6 µM (inactive),> 31.6 µM (inactive),> 31.6 µM (inactive),> 31.6 µM (inactive),> 31.6 µM (inactive),> 10 µM (inactive),> 31.6 µM (inactive),> 31.6 µM (inactive),> 31.6 µM (inactive),> 31.6 µM (inactive),> 31.6 µM (inactive)
O=C1CSC(c2c[nH]c3ccccc23)N1c1cccc(Cl)c1 (stereo not given),25.7 µM (inactive),84.5 µM (inactive),> 100 µM (inactive),31.9 µM (inactive),27.9 µM (inactive),36.1 µM (inactive),40.4 µM,40 µM (inactive),> 100 µM (inactive),89.3 µM (inactive),36.6 µM (inactive),44.1 µM (inactive),60.4 µM (inactive),50.7 µM (inactive),43.9 µM (inactive),24.2 µM (inactive),52.2 µM (inactive),68.2 µM (inactive),27.9 µM (inactive),54 µM (inactive)
O=C(O)c1ccccc1/C=C1/Cc2ccc3c(c2C1=O)CCC3,22.4 µM (inactive),39.7 µM (inactive),42.8 µM (inactive),38.9 µM (inactive),31.8 µM (inactive),50.2 µM (inactive),33.6 µM,18.2 µM (inactive),68.9 µM (inactive),90.8 µM (inactive),20.1 µM (inactive),42.4 µM (inactive),24.9 µM (inactive),58.9 µM (inactive),22.9 µM (inactive),37.7 µM (inactive),51.8 µM (inactive),54.7 µM (inactive),43.6 µM (inactive),35.6 µM (inactive)
CC1=NN(c2nc(N)nc(-c3sccc3N)n2)C(C)(C)C1,31.8 µM (inactive),> 100 µM (inactive),40.2 µM (inactive),43.6 µM (inactive),> 100 µM (inactive),37.1 µM (inactive),59.4 µM,41.1 µM (inactive),> 100 µM (inactive),> 100 µM (inactive),71.3 µM (inactive),92.5 µM (inactive),> 100 µM (inactive),> 100 µM (inactive),56.1 µM (inactive),> 100 µM (inactive),> 100 µM (inactive),> 100 µM (inactive),> 100 µM (inactive),64.9 µM (inactive)
Cc1ccnc2c1c(=O)c1ccccc1n2C,36.7 µM (inactive),12.9 µM (inactive),43 µM (inactive),47.2 µM (inactive),63.2 µM (inactive),40.6 µM (inactive),38 µM,18.7 µM (inactive),52.2 µM (inactive),26.3 µM (inactive),34.2 µM (inactive),37.5 µM (inactive),49.7 µM (inactive),35.5 µM (inactive),27.1 µM (inactive),27.7 µM (inactive),30.5 µM (inactive),15.4 µM (inactive),31 µM (inactive),49.1 µM (inactive)
COc1ccc2c(c1OC(C)=O)C1=CC(=O)CCC13CCNC3C2 (stereo not given),> 100 µM (inactive),> 100 µM (inactive),> 100 µM (inactive),> 100 µM (inactive),> 100 µM (inactive),> 100 µM (inactive),> 100 µM,> 100 µM (inactive),> 100 µM (inactive),> 100 µM (inactive),> 100 µM (inactive),> 100 µM (inactive),> 100 µM (inactive),> 100 µM (inactive),> 100 µM (inactive),> 100 µM (inactive),> 100 µM (inactive),> 100 µM (inactive),> 100 µM (inactive),> 100 µM (inactive)
Cc1cc(CN(Cc2ccccc2)Cc2nc3ccccc3[nH]2)c(O)c(CN(Cc2nc3ccccc3[nH]2)Cc2nc3ccccc3[nH]2)c1,4.81 µM (inactive),7.03 µM (inactive),26.2 µM (inactive),2.81 µM (inactive),6.5 µM (inactive),5.06 µM (inactive),2.81 µM,6.73 µM (inactive),23.4 µM (inactive),4.71 µM (inactive),2.16 µM (inactive),6.15 µM (inactive),3.48 µM (inactive),14.1 µM (inactive),4.76 µM (inactive),3.38 µM (inactive),8.41 µM (inactive),5.2 µM (inactive),5.04 µM (inactive),6.93 µM (inactive)
